Data taken from patent US20100298141A1, “SUBSTITUTED PYRIDINE N-OXIDE HERBICIDES” (E. I. DU PONT DE NEMOURS AND COMPANY, priority 2007, published 2010).

Legend:
velvetleaf = assay: Test C pre-/postemergence test; format: in vivo, Abutilon theophrasti; settings: for Plant response rating, Velvetleaf: 31 g ai/ha, scale 0 to 100 (0 no effect, 100 complete control)
In short: (§1)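 Compounds in a non-phytotoxic solvent with surfactant applied preemergence to seeded pots and, at the same time, postemergence to plants 2–18 cm tall (1- to 4-leaf stage). Paddy tests: pots flooded to 3 cm, compound applied into the water, depth held throughout.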

Surinam grass = assay: Test C pre-/postemergence test; format: in vivo, Brachiaria decumbens; settings: for Plant response rating, Surinam Grass: 31 g ai/ha, scale 0 to 100 (0 no effect, 100 complete control)
In short: as §1

crabgrass [1] = assay: Test C pre-/postemergence test; format: in vivo, Digitaria sanguinalis; settings: for Plant response rating, Crabgrass, Large: 31 g ai/ha, scale 0 to 100 (0 no effect, 100 complete control)
In short: as §1

Goosegrass = assay: Test C pre-/postemergence test; format: in vivo, Eleusin indica; settings: for Plant response rating, Goosegrass: 31 g ai/ha, scale 0 to 100 (0 no effect, 100 complete control)
In short: as §1

corn [2] = assay: Test C pre-/postemergence test; format: in vivo, Zea mays
In short: as §1

Italian ryegrass = assay: Test C pre-/postemergence test; format: in vivo, Lolium multiflorum; settings: for Plant response rating, Ryegrass, Italian: 31 g ai/ha, scale 0 to 100 (0 no effect, 100 complete control)
In short: as §1

corn [3] = assay: Test A pre-/postemergence greenhouse test; format: in vivo, Zea mays; settings: for Plant response rating, Corn: 0 to 100 scale where 0 is no effect and 100 is complete control; for Corn plant response rating: 0 to 100 scale
In short: (§2)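 Greenhouse herbicide screen, pre- and postemergence in parallel. Soil: loam plus sand. Formulation: non-phytotoxic solvent mix with surfactant. Postemergence stage: one to two leaves, 2–10 cm height. Evaluation: visual injury, compared with untreated controls, about 10 days after treatment.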

giant foxtail = assay: Test C pre-/postemergence test; format: in vivo, Setaria faberii; settings: for Plant response rating, Foxtail, Giant: 31 g ai/ha, scale 0 to 100 (0 no effect, 100 complete control)
In short: as §1

barnyardgrass = assay: Test A pre-/postemergence greenhouse test; format: in vivo, Echinochloa crus-galli; settings: for Plant response rating, Barnyardgrass: 0 to 100 scale where 0 is no effect and 100 is complete control; for Barnyardgrass plant response rating: 0 to 100 scale
In short: as §2

[4] = tested on: common (oilseed) sunflower; assay: Test C pre-/postemergence test; format: in vivo, Helianthus annuus; settings: for Plant response rating, Sunflower: 31 g ai/ha, scale 0 to 100 (0 no effect, 100 complete control)
From the text: Seeds of plant species selected from blackgrass (Alopecurus myosuroides), downy brome (Bromus tectorum), green foxtail (Setaria viridis), Italian ryegrass (Lolium multiflorum), wheat (Triticum aestivum), wild oat (Avena fatua), catchweed bedstraw (Galium aparine), Russian thistle (Salsola kali), […] (Cynodon dactylon), Surinam grass (Brachiaria decumbens), cocklebur (Xanthium strumarium), corn (Zea mays), crabgrass (Digitaria sanguinalis), woolly cupgrass (Eriochloa villosa), giant foxtail (Setaria faberii), Goosegrass (Eleusin indica), johnsongrass (Sorghum halepense), kochia (Kochia scoparia), lambsquarters (Chenopodium album), morningglory (Ipomoea coccinea), eastern black nightshade (Solanum ptycanthum), yellow nutsedge (Cyperus esculentus), pigweed (Amaranthus retroflexus), common ragweed (Ambrosia elation), soybean (Glycine max), common (oilseed) sunflower (Helianthus annuus), and velvetleaf (Abutilon theophrasti) were planted and treated preemergence with test chemicals formulated in a non-phytotoxic solvent mixture which included a surfactant. At the same time, plants selected from these crop and weed species and also winter barley (Hordeum vulgare), canarygrass (Phalaris minor), and chickweed (Stellaria media) were treated with postemergence applications of some of the test chemicals formulated in the same manner. Plants ranged in height from 2 to 18 cm (1- to 4-leaf stage) for postemergence treatments. […] At time of treatment, test pots were flooded to 3 cm above the soil surface, treated by application of test compounds directly to the paddy water, and then maintained at that water depth for the duration of the test. […] A dash (-) response means no test result.

morningglory = assay: Test C pre-/postemergence test; format: in vivo, Ipomoea coccinea; settings: for Plant response rating, Morningglory: 31 g ai/ha, scale 0 to 100 (0 no effect, 100 complete control)
In short: as §1

umbrella sedge = assay: Test C flooded paddy test; format: in vivo, Cyperus difformis; settings: Flood
In short: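 Ratings were visual and made relative to untreated controls after 13 to 15 greenhouse days.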

johnsongrass = assay: Test C pre-/postemergence test; format: in vivo, Sorghum halepense; settings: for Plant response rating, Johnsongrass: 31 g ai/ha, scale 0 to 100 (0 no effect, 100 complete control)
In short: as §1

wheat = assay: Test A pre-/postemergence greenhouse test; format: in vivo, Triticum aestivum; settings: for Plant response rating, Wheat: 0 to 100 scale where 0 is no effect and 100 is complete control; for Wheat plant response rating: 0 to 100 scale
In short: as §2

pigweed = assay: Test C pre-/postemergence test; format: in vivo, Amaranthus retroflexus
In short: as §1

crabgrass [5] = assay: Test A pre-/postemergence greenhouse test; format: in vivo, Digitaria sanguinalis; settings: for Plant response rating, Crabgrass, Large: 0 to 100 scale where 0 is no effect and 100 is complete control; for Crabgrass, Large plant response rating: 0 to 100 scale
In short: as §2

[6] = 62 g ai/ha, Preemergence, scale 0 to 100
[7] = 125 g ai/ha, preemergence, scale 0 (no effect) to 100 (complete control)
[8] = preemergence, 250 g ai/ha, scale 0 (no effect) to 100 (complete control)
[9] = Postemergence, 500 g ai/ha, 0 is no effect, 100 is complete control
[10] = Preemergence, 125 g ai/ha, 0 no effect, 100 complete control
[11] = 62 g ai/ha, scale 0 to 100 (0 no effect, 100 complete control)
[12] = 250 g ai/ha, scale 0 to 100, 0 no effect, 100 complete control, 13 to 15 days
[13] = Preemergence, 31 g ai/ha, scale 0 to 100 (0 no effect, 100 complete control)

## CCn1nc(C(F)(F)F)c(C[S+]([O-])c2cc(C)cc[n+]2[O-])c1OCC(F)(F)F (racemic) [Compound 66]
velvetleaf; [6]
  Velvetleaf plant response rating: 90
velvetleaf; [7]
  Velvetleaf plant response rating: 95
velvetleaf; Preemergence
  Plant response rating, Velvetleaf: 70
velvetleaf; [8]
  Velvetleaf plant response rating: 100
Surinam grass; [6]
  Surinam Grass plant response rating: 100
Surinam grass; [7]
  Surinam Grass plant response rating: 100
Surinam grass; Preemergence
  Plant response rating, Surinam Grass: 100
Surinam grass; [8]
  Surinam Grass plant response rating: 100
Crabgrass [1]; [6]
  Crabgrass, Large plant response rating: 100
Crabgrass [1]; [7]
  Crabgrass, Large plant response rating: 100
Crabgrass [1]; Preemergence
  Plant response rating, Crabgrass, Large: 100
Crabgrass [1]; [8]
  Crabgrass, Large plant response rating: 100
Goosegrass; [6]
  Goosegrass plant response rating: 100
Goosegrass; [7]
  Goosegrass plant response rating: 100
Goosegrass; Preemergence
  Plant response rating, Goosegrass: 100
Goosegrass; [8]
  Goosegrass plant response rating: 100
Corn [2]; [6]
  Corn plant response rating: 80
Corn [2]; [7]
  Corn plant response rating: 100
Corn [2]; [8]
  Corn plant response rating: 100
Italian ryegrass; [6]
  Ryegrass, Italian plant response rating: 90
Italian ryegrass; [7]
  Ryegrass, Italian plant response rating: 100
Italian ryegrass; Preemergence
  Plant response rating, Ryegrass, Italian: 55
Corn [3]; Postemergence, 125 g ai/ha
  Plant response rating, Corn: 50
Corn [3]; [9]
  Corn plant response rating: 80
Corn [3]; [10]
  Corn plant response rating: 30
Corn [3]; Preemergence, 500 g ai/ha
  Plant response rating, Corn: 80
Giant foxtail; [6]
  Foxtail, Giant plant response rating: 100
Giant foxtail; [7]
  Foxtail, Giant plant response rating: 100
Giant foxtail; Preemergence
  Plant response rating, Foxtail, Giant: 100
Giant foxtail; [8]
  Foxtail, Giant plant response rating: 100
barnyardgrass; Postemergence, 125 g ai/ha
  Plant response rating, Barnyardgrass: 70
barnyardgrass; [9]
  Barnyardgrass plant response rating: 90
barnyardgrass; [10]
  Barnyardgrass plant response rating: 60
barnyardgrass; Preemergence, 500 g ai/ha
  Plant response rating, Barnyardgrass: 100
[4]; [6]
  Sunflower plant response rating: 80
[4]; [7]
  Sunflower plant response rating: 80
[4]; Preemergence
  Plant response rating, Sunflower: 30
[4]; [8]
  Sunflower plant response rating: 98
morningglory; [6]
  Morningglory plant response rating: 90
morningglory; [7]
  Morningglory plant response rating: 90
morningglory; Preemergence
  Plant response rating, Morningglory: 50
morningglory; [8]
  Morningglory plant response rating: 100
Umbrella sedge; [11]
  Plant response rating, Sedge, Umbrella: 85
Umbrella sedge; [12]
  Plant response rating, Sedge, Umbrella: 100
johnsongrass; [7]
  Johnsongrass plant response rating: 80
johnsongrass; Preemergence
  Plant response rating, Johnsongrass: 80
johnsongrass; [8]
  Johnsongrass plant response rating: 80
wheat; Postemergence, 125 g ai/ha
  Plant response rating, Wheat: 60
wheat; [9]
  Wheat plant response rating: 70
wheat; [10]
  Wheat plant response rating: 70
wheat; Preemergence, 500 g ai/ha
  Plant response rating, Wheat: 100
pigweed; [6]
  Pigweed plant response rating: 30
pigweed; [7]
  Pigweed plant response rating: 100
pigweed; [8]
  Pigweed plant response rating: 100
Crabgrass [5]; Postemergence, 125 g ai/ha
  Plant response rating, Crabgrass, Large: 50
Crabgrass [5]; [9]
  Crabgrass, Large plant response rating: 90
Crabgrass [5]; [10]
  Crabgrass, Large plant response rating: 80
Crabgrass [5]; Preemergence, 500 g ai/ha
  Plant response rating, Crabgrass, Large: 100

## CCn1nc(C(F)(F)F)c(CS(=O)(=O)c2cccc[n+]2[O-])c1OCC(F)(F)F [Compound 63]
velvetleaf; [6]
  Velvetleaf plant response rating: 80
velvetleaf; [7]
  Velvetleaf plant response rating: 85
velvetleaf; Preemergence
  Plant response rating, Velvetleaf: 50
velvetleaf; [8]
  Velvetleaf plant response rating: 100
Surinam grass; [6]
  Surinam Grass plant response rating: 100
Surinam grass; [7]
  Surinam Grass plant response rating: 100
Surinam grass; Preemergence
  Plant response rating, Surinam Grass: 100
Surinam grass; [8]
  Surinam Grass plant response rating: 100
Crabgrass [1]; [6]
  Crabgrass, Large plant response rating: 100
Crabgrass [1]; [7]
  Crabgrass, Large plant response rating: 100
Crabgrass [1]; Preemergence
  Plant response rating, Crabgrass, Large: 100
Crabgrass [1]; [8]
  Crabgrass, Large plant response rating: 100
Goosegrass; [6]
  Goosegrass plant response rating: 100
Goosegrass; [7]
  Goosegrass plant response rating: 100
Goosegrass; Preemergence
  Plant response rating, Goosegrass: 100
Goosegrass; [8]
  Goosegrass plant response rating: 100
Corn [2]; [6]
  Corn plant response rating: 85
Corn [2]; [7]
  Corn plant response rating: 90
Corn [2]; [13]
  Plant response rating, Corn: 5
Corn [2]; [8]
  Corn plant response rating: 100
Italian ryegrass; [6]
  Ryegrass, Italian plant response rating: 50
Italian ryegrass; [7]
  Ryegrass, Italian plant response rating: 60
Italian ryegrass; Preemergence
  Plant response rating, Ryegrass, Italian: 0
Italian ryegrass; [8]
  Ryegrass, Italian plant response rating: 100
Corn [3]; Postemergence, 125 g ai/ha
  Plant response rating, Corn: 30
Corn [3]; [9]
  Corn plant response rating: 60
Corn [3]; [10]
  Corn plant response rating: 0
Corn [3]; Preemergence, 500 g ai/ha
  Plant response rating, Corn: 50
Giant foxtail; [6]
  Foxtail, Giant plant response rating: 100
Giant foxtail; [7]
  Foxtail, Giant plant response rating: 100
Giant foxtail; Preemergence
  Plant response rating, Foxtail, Giant: 100
Giant foxtail; [8]
  Foxtail, Giant plant response rating: 100
barnyardgrass; Postemergence, 125 g ai/ha
  Plant response rating, Barnyardgrass: 90
barnyardgrass; [9]
  Barnyardgrass plant response rating: 90
barnyardgrass; [10]
  Barnyardgrass plant response rating: 90
barnyardgrass; Preemergence, 500 g ai/ha
  Plant response rating, Barnyardgrass: 100
[4]; [6]
  Sunflower plant response rating: 60
[4]; [7]
  Sunflower plant response rating: 80
[4]; Preemergence
  Plant response rating, Sunflower: 10
[4]; [8]
  Sunflower plant response rating: 85
morningglory; [6]
  Morningglory plant response rating: 0
morningglory; [7]
  Morningglory plant response rating: 0
morningglory; Preemergence
  Plant response rating, Morningglory: 0
morningglory; [8]
  Morningglory plant response rating: 0
Umbrella sedge; [11]
  Plant response rating, Sedge, Umbrella: 0
Umbrella sedge; [12]
  Plant response rating, Sedge, Umbrella: 85
johnsongrass; [6]
  Johnsongrass plant response rating: 85
johnsongrass; Preemergence
  Plant response rating, Johnsongrass: 85
johnsongrass; [8]
  Johnsongrass plant response rating: 98
wheat; Postemergence, 125 g ai/ha
  Plant response rating, Wheat: 50
wheat; [9]
  Wheat plant response rating: 60
wheat; [10]
  Wheat plant response rating: 20
wheat; Preemergence, 500 g ai/ha
  Plant response rating, Wheat: 80
pigweed; [6]
  Pigweed plant response rating: 100
pigweed; [7]
  Pigweed plant response rating: 100
pigweed; [13]
  Plant response rating, Pigweed: 50
pigweed; [8]
  Pigweed plant response rating: 100
Crabgrass [5]; Postemergence, 125 g ai/ha
  Plant response rating, Crabgrass, Large: 60
Crabgrass [5]; [9]
  Crabgrass, Large plant response rating: 90
Crabgrass [5]; [10]
  Crabgrass, Large plant response rating: 80
Crabgrass [5]; Preemergence, 500 g ai/ha
  Plant response rating, Crabgrass, Large: 100
